Where two headings read alike, the source gives them in different places. Ends that are not written are not given here. Peptide text beside a SMILES is read from it.
Tests used:
B16F10 cells = experiment: Melanogenesis inhibition test in α-MSH-stimulated B16F10 cells; format: cell-based
Description: (§1) B16F10 cells were cultured in DMEM that was supplemented with 10% (v/v) fetal bovine serum (FBS), 50 μg/mL streptomycin and 50 U/mL penicillin at 37 °C in 5% CO2. Mel-Ab cells were cultured in DMEM with 10% (v/v) FBS, 100 nM 12-O-tetradecanoylphorbol-13-acetate (TPA), 1 nM cholera toxin (CT), 50 μg/mL streptomycin and 50 U/mL penicillin at 37 °C in 5% CO2.
(§2) The effects of the inhibitors (peptides and arbutin) on melanin formation in Mel-Ab cells and B16F10 cells were evaluated. B16F10 cells (5 × 10^3 per well) were cultured in 96-well plates and incubated with the samples (1, 5, 10, 50 and 100 μM) in a complete medium that contained α-MSH for 4 days. Then, the medium was collected from each well and the optical densities were measured at 405 nm. Mel-Ab cells (5 × 10^4 per well) were cultured in 6-well plates and incubated with the samples (1, 5, 10, 50 and 100 μM) in the complete medium for 3 days. Next, the treated cells were then dissolved in 1 mL of 1 N NaOH at 100 °C for 30 min and centrifuged for 20 min at 16,000 g, after which the optical densities of the supernatants were measured at 400 nm.
The percentage of melanin content was calculated via following equation: % melanin content = (A/B) × 100 where A represents the optical density of the sample-treated group and B represents the optical density of the untreated control group. […]

Mel-Ab cells = experiment: Melanogenesis inhibition test in Mel-Ab cells; format: cell-based, mouse
Description: as §1, §2
The percentage of melanin content was calculated via following equation: % melanin content = (A/B) × 100 where A represents the optical density of the sample-treated group and B represents the optical density of the untreated control group. All the tests were conducted independently three times. Each experiment was performed in triplicate and the results were averaged.

[1] = system: phosphorylation of CREB at serin-133; conditions: 100 µM, α-MSH-treated B16F10 cells
Description: For the Western blot analysis, B16F10 cells were seeded into 6-well plates. After 24 h, the cultured medium was replaced with serum-free DMEM and incubated for another 24 h. Then, the cells were treated with samples in new serum-free media and incubated for 0–360 min. Cells were lysed with RIPA buffer containing protease inhibitor cocktail and phosphatase inhibitor cocktail. Protein concentration was determined using the Bicinchoninic acid (BCA) protein assay kit (Thermo Scientific, Rockford, IL, USA). Protein (20 μg) samples were separated on 4–20% polyacrylamide gels and then transferred to polyvinylidene fluoride (PVDF) membranes (#1704156, Bio-Rad, Hercules, CA, USA), which were blocked with 5% nonfat dry milk in Tris buffered saline solution containing 0.1% Tween 20. The blots were incubated with the primary antibodies at 4 °C overnight. Membrane-bound primary antibodies were detected using HRP-conjugated secondary antibodies and chemiluminescent substrate. Digital images of the blotted membranes were obtained and analyzed using ChemiDoc XRS+ Systems with Image Lab Software (Version 5.1) (Bio-Rad). The relative protein expression of p-cAMP response element-binding protein (CREB) was normalized to that of CREB and glyceraldehyde 3-phosphate dehydrogenase (GAPDH).

[2] = Lipid peroxidation ferric thiocyanate assay (antioxidant activity); conditions: lipid peroxidation inhibition after 24 h, 50 °C, dark, peptide 250 μM; for antioxidant activity relative to the original peptide (enhancement): original peptide set to 1.0
Description: Linoleic acid and Tween 20 were mixed in 0.1 M sodium phosphate buffer (pH 7.0) to prepare a linoleic acid emulsion (50 mM). […] These reaction mixtures were tightly capped by septa in glass vials and kept at 50 °C for 30 h under dark conditions. To evaluate the antioxidant activity of the oligopeptides by the quantification of lipid peroxidation inhibition, the ferric thiocyanate assay was used with some modifications. An aliquot of the reaction mixture (25 µL) was withdrawn at intervals and mixed with 1.175 mL of 75% ethanol, 25 µL of 20 mM ferrous chloride in 3.5% HCl and 25 µL of 30% ammonium thiocyanate. The absorbance was measured at 500 nm after 3 min, which was when the color development by the ferric thiocyanate complex was maximal. Each experiment was conducted in triplicate and the results were averaged.

mushroom tyrosinase = experiment: Mushroom tyrosinase inhibition test with L-DOPA as substrate; format: biochemical; conditions: for IC50: L-DOPA 2.5 mM, mushroom tyrosinase 100 µg/mL (428 U/mL), 25 °C, 10 min, read-out: IC50 (tyrosinase inhibitory activity); for effect on dopachrome formation (UV-Vis scanning): dopachrome at 475 nm, L-DOPA and mushroom tyrosinase
Description: A mushroom tyrosinase inhibition test was carried out with L-DOPA as a substrate. Two hundred fifty microliters of phosphate buffer (0.1 M, pH 6.8), 250 µL of 2.5 mM L-DOPA, 200 µL of water and 25 µL of oligopeptide in DMSO at various concentrations were mixed. The reaction mixture was incubated at 25 °C for 10 min after the addition of 25 µL of aqueous mushroom tyrosinase solution (100 µg/mL, 428 U/mL) and then the UV absorbance was measured at 475 nm. The following equation was used to calculate the percentage of mushroom tyrosinase inhibition: % Tyrosinase Inhibition = (1 − A/B) × 100 where A represents the absorbance at 475 nm of the reaction mixture that contained the inhibitor and B represents the absorbance at 475 nm of a reference reaction mixture that contained DMSO instead of the inhibitor. The concentration of half-maximal inhibitory activity (IC50) values were determined by measuring the tyrosinase inhibitory activity at various peptide concentrations (10, 50, 100, 250 and 500 µM). Each experiment was performed in triplicate and the results were averaged.

| Compound | inhibition of melanin production (in words) (B16F10 cells; α-MSH treated B16F10 cells, various concentrations) | reduction of melanin content (Mel-Ab cells; 100 µM, 3 days) | suppression of melanin production (B16F10 cells; 50 µM, B16F10 cells) | suppression of phosphorylation of CREB ([1]; 10 min) | suppression of phosphorylation of CREB ([1]; 180 min) | antioxidant activity relative to the original peptide (enhancement) [2] | tyrosinase inhibition mode (Lineweaver-Burk plot) (mushroom tyrosinase; Km values increase and Vmax values decrease with increasing peptide concentration) | IC50 (mushroom tyrosinase) | effect on dopachrome formation (UV-Vis scanning) (mushroom tyrosinase) | reduction of melanin content (Mel-Ab cells; 5 μM) | decrease of antioxidant activity relative to the original peptide [2] |
| --- | --- | --- | --- | --- | --- | --- | --- | --- | --- | --- | --- |
| CC[C@H](C)[C@H](NC(=O)[C@H](Cc1c[nH]cn1)NC(=O)[C@H](CCSC)NC(C)=O)C(=O)N[C@@H](CCCNC(=N)N)C(N)=O [Ac-MHIR] (Ac-MHIR-NH2) | barely inhibits melanin production |  |  |  |  |  |  |  |  |  |  |
| MHIRL-NH2 [MHIRL, methionine-histidine-isoleucine-arginine-leucine amide] |  | 28% |  |  |  |  |  |  |  |  |  |
| Methionine-histidine-isoleucine-arginine amide [MHIR] |  | 57% | up to 80% | 18% | 37% | 1.3–1.8 times | mixed-mode of inhibition | 83 µM | sufficiently suppress dopachrome formation | 30% |  |
| histidine-isoleucine-arginine-leucine amide [HIRL] |  | 33% |  |  |  | 1.3–1.8 times |  | 70 µM | sufficiently suppress dopachrome formation |  | more than 50% |

From paper PMC7698045, “Milk Protein-Derived Antioxidant Tetrapeptides as Potential Hypopigmenting Agents” (Antioxidants, 2020)
